# Assay results as given in US4459417A, “Process for preparing spectinomycin analogs: N-demethylation of spectinomycin or its analogs and realkylation of the intermediates” (The Upjohn Company, priority 1983, dated 1984).
# Where a name gives a salt, the structure may show the parent alone.
# Assays:
# Experiment in all cases: Minimum inhibitory concentration in vitro
# Type in all cases: cell-based
# S. aureus UC 76 = details: for MIC: Staphylococcus aureus, UC76
# S. faecalis UC 694 = details: for MIC: Enterococcus faecalis, UC694
# E. coli UC 45 = details: for MIC: Escherichia coli, UC45
# K. pneumoniae UC 58 = details: for MIC: Klebsiella pneumoniae, UC58
# Ps. aeruginosa UC 95 = details: for MIC: Pseudomonas aeruginosa, UC95
# P. vulgaris UC 93 = details: for MIC: Proteus vulgaris, UC93
# P. mirabilis UC 6671 = details: for MIC: Proteus mirabilis, UC6671
# S. flexneri UC 143 = details: Shigella flexneri, UC143
# S. typhi UC 215 = details: for MIC: Salmonella enterica, read-out: Minimum Inhibitory Concentration; for Minimum Inhibitory Concentration: in vitro, S. typhi UC 215
# S. marcescens UC 131 = details: for MIC: Serratia marcescens, UC131
# S. schottmuelleri UC 126 = system: S. schottmuelleri UC 126
# P. stuartii UC 6570 = details: for MIC: Providencia stuartii, UC6570
Molecule,MIC (S. aureus UC 76) [µg/mL],MIC (S. faecalis UC 694) [µg/mL],MIC (E. coli UC 45) [µg/mL],MIC (K. pneumoniae UC 58) [µg/mL],MIC (Ps. aeruginosa UC 95) [µg/mL],MIC (P. vulgaris UC 93) [µg/mL],MIC (P. mirabilis UC 6671) [µg/mL],MIC (S. flexneri UC 143) [µg/mL],MIC (S. typhi UC 215) [µg/mL],MIC (S. marcescens UC 131) [µg/mL],MIC (S. schottmuelleri UC 126) [µg/mL],MIC (P. stuartii UC 6570) [µg/mL],Minimum Inhibitory Concentration (S. aureus UC 76) [Micrograms/Milliliter],Minimum Inhibitory Concentration (S. faecalis UC 694) [Micrograms/Milliliter],Minimum Inhibitory Concentration (K. pneumoniae UC 58) [Micrograms/Milliliter],Minimum Inhibitory Concentration (P. vulgaris UC 93) [Micrograms/Milliliter],Minimum Inhibitory Concentration (P. mirabilis UC 6671) [Micrograms/Milliliter],Minimum Inhibitory Concentration (S. typhi UC 215) [Micrograms/Milliliter],Minimum Inhibitory Concentration (S. marcescens UC 131) [Micrograms/Milliliter],further results
"CCN[C@@H]1[C@H](O)[C@H](NCC)[C@H]2O[C@@]3(O)C(=O)C[C@@H](C)O[C@H]3O[C@@H]2[C@H]1O [IIIa, N,N'-didemethyl-N,N'-diethylspectinomycin dihydrochloride]",500,> 1000,1000,31.2,1000,125,62.5,31.2,1000,62.5,> 1000,> 1000,,,,,,,,
"C[C@@H]1CC(=O)[C@]2(O)O[C@@H]3[C@@H](N)[C@@H](O)[C@@H](N)[C@H](O)[C@H]3O[C@@H]2O1 [IIa, N,N'-didemethylspectinomycin dihydrochloride]",250,> 1000,> 1000,125,250,125,1000,250,> 1000,31.2,,,,,,,,,,
"CN[C@@H]1[C@H](O)[C@H](NC)[C@H]2O[C@@]3(O)C(=O)C[C@@H](C)O[C@H]3O[C@@H]2[C@H]1O [Ia, spectinomycin]",7.8,31.2 to 62.5,3.9 to 7.8,2 to 3.9,31.2,7.8 to 15.6,3.9 to 7.8,3.9 to 7.8,3.9 to 7.8,3.9 to 7.8,7.8,1000,,,,,,,,
Mono-N-demethylspectinomycin dihydrochlorides [IIb],,,,,,,,,,,,,15.6,125,15.6,15.6,15.6,62.5,3.9,
mono-N-demethyl-mono-N-ethylspectinomycin dihydrochloride [IIIb],,,,,,,,,,,,,31.2,500,3.9,7.8,15.6,125,7.8,Minimum Inhibitory Concentration (E. coli UC 45): 62.5 Micrograms/Milliliter; Minimum Inhibitory Concentration (Ps. aeruginosa UC 95): 31.2 Micrograms/Milliliter; Minimum Inhibitory Concentration (P. stuartii UC 6570): > 500 Micrograms/Milliliter
